From US20140303092A1 (CHIMERIX, INC., priority 2011, published 2014)

Assay: Study HDP-CDV-201: safety and tolerability (adverse events, laboratory abnormalities, discontinuations)
Type: in vivo, human (adult allogeneic HSCT recipients)
Conditions: for ALT, subject 4090 / AST, subject 4090 / Alk Phos, subject 4090 / Bilirubin, subject 4090: 100 BIW
Protocol: Clinical Studies of HDP-CDV were performed and described in detail in the following Examples. For example, HDP-CDV-201 is a placebo-controlled, dose-escalating trial in HSCT CMV (R+) recipients, evaluating the ability of HDP-CDV to prevent or control CMV infection was carried out. Five cohorts were established in which participants or subjects received either placebo or the HDP-CDV orally, in doses ranging from 40 mg weekly (QW) to 200 mg twice weekly (BIW). Subjects who were post-HSCT were enrolled at the time of engraftment and randomized to HDP-CDV or placebo (3 to 1 ratio) and received blinded therapy until approximately 100 day post-transplantation. HDP-CDV doses were 40 mg QW, 100 mg QW, 200 mg QW, 200 mg BIW and 100 mg BIW. Escalation to the next dose was decided by the data monitoring committee after review of the safety data from the previous Cohort. Subjects who developed CMV disease or CMV infection requiring pre-emptive therapy with local standard of care were discontinued from blinded therapy and followed for 4 weeks. Subjects who completed treatment with blinded therapy were followed for 8 weeks post-therapy.
Data from Study HDP-CDV-201 also provided characterization of the safety and tolerability profile of HDP-CDV when administered for the prevention or control of CMV infection in high risk (R^+) post-HSCT adult subjects.
The Safety population (SAFETY) included all randomized subjects who took at least one dose of study treatment. This population was used to summarize safety outcomes based on the treatment actually received, in cases where a subject was treated contrary to the randomization schedule.
The safety and tolerability profile of HDP-CDV, including subject demographics and Baseline characteristics; the AE profile; and laboratory abnormalities of interest were analyzed in the cohorts followed in this investigation.
Subjects completing the treatment period received a full course of study medication; those completing the entire study attended visits through 8 weeks of follow up. Subjects who discontinued treatment may have done so for protocol specified reasons (e.g. development of clinically significant CMV infection requiring preemptive treatment with excluded anti-CMV medications) or for other reasons (e.g., withdrawal, adverse events, loss to follow-up). The disposition of subjects in Study HDP-CDV-201 during the double-blind, placebo-controlled treatment period (through Week 11) is listed by dosing Cohort in TABLE 23.
Adverse events were examined by severity to ensure that all safety signals were identified in this study population. Because of the frequency of events in HSCT recipients, particular attention was given to evaluation of Grade 3 […], 4 (severe), and 5 (fatal) adverse events.
Only those preferred terms for which at least one Grade 3 or higher event was experienced in any treatment group are listed. Cytomegalovirus-related AEs are excluded from this analysis.
HDP-CDV is a lipid conjugate of CDV. Because CDV is known to have adverse effects on renal function and bone marrow, decreased GFR and persistent neutropenia were identified as AEs of special interest. Key renal and hematological (TABLE 30) laboratory parameters were measured and listed below by Study HDP-CDV-201 treatment groups. TABLE 30 includes abnormal levels of serum creatinine, neutrophils, platelets, WBCs, and hemoglobin and includes data at Screening and during the treatment period.
A common metric for unit based dosing of medications is by weight (mg/kg). When the distribution of weights was examined for all subjects participating in the study, the median was 78 kg and the lower 25th percentile weight was approximately 65 kg, which translates to a cut-off of ˜3 mg/kg for a 200 mg total weekly dose. Based upon this approach, a cut-off of 3 mg/kg was used to assess the frequency of diarrhea and associated GI AEs reported for the subjects in Cohorts 3 or 4a (TABLE 40).

CCCCCCCCCCCCCCCCOCCCOP(=O)(O)COC(CO)Cn1ccc(N)nc1=O (stereo not drawn) [HDP-CDV]
TEAE LFT Abnormal, Grade 4 (200 mg QW): 0 | TEAE LFT Abnormal, Grade 5 (200 mg QW): 0 | TEAE Leukocytosis, Frequency (200 mg QW): 2 (5.1%) | TEAE Leukocytosis, Grade 2 (200 mg QW): 0 | TEAE Leukocytosis, Grade 3 (200 mg QW): 0 | TEAE Leukocytosis, Grade 4 (200 mg QW): 0 | TEAE Leukocytosis, Grade 5 (200 mg QW): 0 | TEAE Nausea, Frequency (200 mg QW): 11 (28.2%) | TEAE Nausea, Grade 2 (200 mg QW): 4 (10.3%) | TEAE Nausea, Grade 3 (200 mg QW): 1 (2.6%) | TEAE Nausea, Grade 4 (200 mg QW): 0 | TEAE Nausea, Grade 5 (200 mg QW): 0 | TEAE Neutropenia, Frequency (200 mg QW): 4 (10.3%) | TEAE Neutropenia, Grade 2 (200 mg QW): 1 (2.6%) | TEAE Neutropenia, Grade 3 (200 mg QW): 3 (7.7%) | TEAE Neutropenia, Grade 4 (200 mg QW): 0 | TEAE Neutropenia, Grade 5 (200 mg QW): 0 | TEAE Pneumonia, Frequency (200 mg QW): 0 | TEAE Pneumonia, Grade 2 (200 mg QW): 0 | TEAE Pneumonia, Grade 3 (200 mg QW): 0 | TEAE Pneumonia, Grade 4 (200 mg QW): 0 | TEAE Pneumonia, Grade 5 (200 mg QW): 0 | TEAE Pyrexia, Frequency (200 mg QW): 7 (17.9%) | TEAE Pyrexia, Grade 2 (200 mg QW): 2 (5.1%) | TEAE Pyrexia, Grade 3 (200 mg QW): 2 (5.1%) | TEAE Pyrexia, Grade 4 (200 mg QW): 0 | TEAE Pyrexia, Grade 5 (200 mg QW): 0 | TEAE Renal Failure, Frequency (200 mg QW): 0 | TEAE Renal Failure, Grade 2 (200 mg QW): 0 | TEAE Renal Failure, Grade 3 (200 mg QW): 0 | TEAE Renal Failure, Grade 4 (200 mg QW): 0 | TEAE Renal Failure, Grade 5 (200 mg QW): 0 | TEAE Staphylococcal Bacteremia, Frequency (200 mg QW): 1 (2.6%) | TEAE Staphylococcal Bacteremia, Grade 2 (200 mg QW): 0 | TEAE Staphylococcal Bacteremia, Grade 3 (200 mg QW): 1 (2.6%) | TEAE Staphylococcal Bacteremia, Grade 4 (200 mg QW): 0 | TEAE Staphylococcal Bacteremia, Grade 5 (200 mg QW): 0 | TEAE Thrombocytopenia, Frequency (200 mg QW): 0 | TEAE Thrombocytopenia, Grade 2 (200 mg QW): 0 | TEAE Thrombocytopenia, Grade 3 (200 mg QW): 0 | TEAE Thrombocytopenia, Grade 4 (200 mg QW): 0 | TEAE Thrombocytopenia, Grade 5 (200 mg QW): 0 | TEAE Vomiting, Frequency (200 mg QW): 6 (15.4%) | TEAE Vomiting, Grade 2 (200 mg QW): 1 (2.6%) | TEAE Vomiting, Grade 3 (200 mg QW): 1 (2.6%) | TEAE Vomiting, Grade 4 (200 mg QW): 0 | TEAE Vomiting, Grade 5 (200 mg QW): 0 | subjects requiring treatment with steroids during the study (200 mg QW): 59% | proportion of subjects with Grade 3 or higher ALT (200 mg QW (6 of 39)): 15.8% | subjects who discontinued study medications (200 mg QW, fasted state): 54% | Subjects Reporting Diarrhea as an AE (200 mg QW, n = 39): 13 (33.3%) | Discontinuation: Death (200 mg QW, active treatment period): 3 (7.7%) Subject n (%) | Discontinuation: Adverse event (200 mg QW, active treatment period through Week 11): 7 (17.9%) Subject n (%) | subjects reporting SAEs involving the gastrointestinal tract (400 mg per week, given as 200 mg BIW): 63% | ALT, subject 4090 (Treatment Wk 8): 445 U/L | AST, subject 4090 (Treatment Wk 8): 195 U/L | Alk Phos, subject 4090 (Treatment Wk 8): Normal | Bilirubin, subject 4090 (Treatment Wk 8): 44 µmol/L | ALT, subject 4090 (Treatment Wk 10): 792 U/L | AST, subject 4090 (Treatment Wk 10): 312 U/L | Alk Phos, subject 4090 (Treatment Wk 10): Normal | Bilirubin, subject 4090 (Treatment Wk 10): Normal | ALT, subject 4008 (200 BIW, Posttreatment Wk 1): 137 U/L | AST, subject 4008 (200 BIW, Posttreatment Wk 1): Normal | Bilirubin, subject 4008 (200 BIW, Posttreatment Wk 1): 48 µmol/L | Alk Phos, subject 4008 (200 BIW, Posttreatment Wk 1, Previously elevated): 117 U/L | ALT, subject 3001 (200 QW, Post Treatment Wk 1): 375 U/L | AST, subject 3001 (200 QW, Post Treatment Wk 1): 164 U/L | Bilirubin, subject 3001 (200 QW, Post Treatment Wk 1): 89 µmol/L | Alk Phos, subject 3001 (200 QW, Post Treatment Wk 1, elevated): 337 U/L | ALT, subject 3044 (200 QW, Post Treatment Wk 4): 227 U/L | AST, subject 3044 (200 QW, Post Treatment Wk 4): Normal | Bilirubin, subject 3044 (200 QW, Post Treatment Wk 4): 50 µmol/L | Alk Phos, subject 3044 (200 QW, Post Treatment Wk 4, Previously elevated): 174 U/L | Grade of hepatobiliary AE symptomatic gallstones, subject 1016 (Cohort 1): 3 | Grade of hepatobiliary AE worsening hyperbilirubinemia, subject 1003 (Cohort 1): 4 | Outcome of hepatobiliary AE symptomatic gallstones, subject 1016 (Cohort 1): recovered/resolved | Outcome of hepatobiliary AE worsening hyperbilirubinemia, subject 1003 (Cohort 1): not recovered/not | Relationship of hepatobiliary AE symptomatic gallstones, subject 1016 (Cohort 1): not related | Relationship of hepatobiliary AE worsening hyperbilirubinemia, subject 1003 (Cohort 1): not related | subjects discontinued due to neutropenia (Cohort 1): 0 subject(s) | ALT (Screening) >3 × ULN-5 × ULN, subjects (Cohort 1, 40 mg QW): 0 | ALT (Screening) >5 × ULN-10 × ULN, subjects (Cohort 1, 40 mg QW): 0 | ALT (Screening) >10 × ULN-20 × ULN, subjects (Cohort 1, 40 mg QW): 0 | ALT (Screening) >20 × ULN, subjects (Cohort 1, 40 mg QW): 0 | ALT (any time during therapy) >3 × ULN-5 × ULN, subjects (Cohort 1, 40 mg QW): 2 (8.7%) | ALT (any time during therapy) >5 × ULN-10 × ULN, subjects (Cohort 1, 40 mg QW): 1 (4.3%) | ALT (any time during therapy) >10 × ULN-20 × ULN, subjects (Cohort 1, 40 mg QW): 0 | ALT (any time during therapy) >20 × ULN, subjects (Cohort 1, 40 mg QW): 0 | AST (Screening) >3 × ULN-5 × ULN, subjects (Cohort 1, 40 mg QW): 0 | AST (Screening) >5 × ULN-10 × ULN, subjects (Cohort 1, 40 mg QW): 0 | AST (Screening) >10 × ULN-20 × ULN, subjects (Cohort 1, 40 mg QW): 0 | AST (Screening) >20 × ULN, subjects (Cohort 1, 40 mg QW): 0 | AST (any time during therapy) >3 × ULN-5 × ULN, subjects (Cohort 1, 40 mg QW): 1 (4.3%) | AST (any time during therapy) >5 × ULN-10 × ULN, subjects (Cohort 1, 40 mg QW): 0 | AST (any time during therapy) >10 × ULN-20 × ULN, subjects (Cohort 1, 40 mg QW): 0 | AST (any time during therapy) >20 × ULN, subjects (Cohort 1, 40 mg QW): 0 | Alkaline Phosphatase (Screening) >2.5-5.0 × ULN, subjects (Cohort 1, 40 mg QW): 0 | Alkaline Phosphatase (Screening) >5.0-20.0 × ULN, subjects (Cohort 1, 40 mg QW): 0 | Alkaline Phosphatase (Screening) >20.0 × ULN, subjects (Cohort 1, 40 mg QW): 0 | Alkaline Phosphatase (Screening) >ULN-[…] ULN, subjects (Cohort 1, 40 mg QW): 6 (24.0%) | Alkaline Phosphatase (any time during therapy) >2.5-5.0 × ULN, subjects (Cohort 1, 40 mg QW): 0 | Alkaline Phosphatase (any time during therapy) >5.0-20.0 × ULN, subjects (Cohort 1, 40 mg QW): 0 | Alkaline Phosphatase (any time during therapy) >20.0 × ULN, subjects (Cohort 1, 40 mg QW): 0 | Alkaline Phosphatase (any time during therapy) >ULN-[…] ULN, subjects (Cohort 1, 40 mg QW): 6 (26.1%) | GI AE Leading to Study Drug Discontinuation: Abdominal pain, subjects (Cohort 1, 40 mg QW): 0 | GI AE Leading to Study Drug Discontinuation: Diarrhoea, subjects (Cohort 1, 40 mg QW): 0 | GI AE Leading to Study Drug Discontinuation: Dyspepsia, subjects (Cohort 1, 40 mg QW): 0 | GI AE Leading to Study Drug Discontinuation: Nausea, subjects (Cohort 1, 40 mg QW): 0 | GI AE Leading to Study Drug Discontinuation: Vomiting, subjects (Cohort 1, 40 mg QW): 0 | GI AEs Leading to Study Drug Discontinuation: Total subjects discontinued (Cohort 1, 40 mg QW): 0
